Data taken from the NIST ThermoML archive (doi:10.1016/j.fluid.2017.07.020).
“And” between values parts separate entries of the source, which are not always exact repeats. Identical values can stand only once.

Assays:
[1] = Molar enthalpy of transition or fusion; details: DSC
[2] = solid-solid phase transition pressure; details: Crystal 2, DTA

BrC12CC3CC(CC(C3)C1)C2 [1-bromotricyclo[3.3.1.1(3,7)]decane]
Details | Molar enthalpy of transition or fusion [kcal/mol] | phase transition pressure
286.4 K, Crystal 3, DTA | – | 36100 kPa
292.5 K, Crystal 3, DTA | – | 71200 kPa
299.2 K, Crystal 3, DTA | – | 93300 kPa
310.5 K, Crystal 3, DTA | – | 122500 kPa
310.7 K, Crystal 2, DTA | – | 31100 kPa
311.5 K, Crystal 3, DTA | – | 117100 kPa
316.4 K, Crystal 3, DTA | – | 151900 kPa
316.8 K, Crystal 3, DTA | – | 133700 kPa
317.9 K, Crystal 2, DTA | – | 48600 kPa
318.5 K, Crystal 2, DTA | – | 49700 kPa
321.1 K, Crystal 2, DTA | – | 48800 kPa
322.6 K, Crystal 2, DTA | – | 50400 kPa
323 K, Crystal 2, DTA | – | 40400 kPa
323.1 K, Crystal 2, DTA | – | 50000 kPa
323.9 K, Crystal 2, DTA | – | 49000 kPa
324.1 K, Crystal 2, DTA | – | 51800 kPa
324.7 K, Crystal 2, DTA | – | 45700 kPa
325.2 K, Crystal 2, DTA | – | 50900 kPa
325.4 K, Crystal 3, DTA | – | 151800 kPa
327.5 K, Crystal 3, DTA | – | 184900 kPa
329.6 K, Crystal 2, DTA | – | 72800 kPa
329.9 K, Crystal 2, DTA | – | 72400 kPa
330.6 K, Crystal 3, DTA | – | 175700 kPa
332 K, Crystal 2, DTA | – | 74500 kPa
333.7 K, Crystal 3, DTA | – | 227100 kPa
335.1 K, Crystal 2, DTA | – | 73100 kPa
337 K, Crystal 3, DTA | – | 199700 kPa
337.3 K, Crystal 2, DTA | – | 100700 kPa
337.4 K, Crystal 2, DTA | – | 95400 kPa
337.8 K, Crystal 2, DTA | – | 101000 kPa
342.8 K, Crystal 3, DTA | – | 256100 kPa
343.5 K, Crystal 2, DTA | – | 118200 kPa
347.6 K, Crystal 2, DTA | – | 128300 kPa
348.3 K, Crystal 2, DTA | – | 126000 kPa
351.4 K, Crystal 2, DTA | – | 126900 kPa
355.9 K, Crystal 2, DTA | – | 138100 kPa
358.3 K, Crystal 2, DTA | – | 153800 kPa
359 K, Crystal 2, DTA | – | 154300 kPa
362.3 K, Crystal 2, DTA | – | 155500 kPa
363.9 K, Crystal 2, DTA | – | 177800 kPa
369 K, Crystal 2, DTA | – | 182300 kPa
369.7 K, Crystal 2, DTA | – | 189300 kPa
372.5 K, Crystal 2, DTA | – | 178800 kPa
374.4 K, Crystal 2, DTA | – | 205600 kPa
377.4 K, Crystal 2, DTA | – | 205400 kPa
381.6 K, Crystal 2, DTA | – | 204700 kPa and 234100 kPa
382.7 K, Crystal 2, DTA | – | 224800 kPa
383.4 K, Crystal 2, DTA | – | 232100 kPa
389.6 K, Crystal 2, DTA | – | 255000 kPa
390.9 K, Crystal 2, DTA | – | 255000 kPa
392.5 K, Crystal 2, DTA | – | 261500 kPa
404.9 K, Crystal 1, DTA | – | 25800 kPa
406 K, Crystal 1, DTA | – | 32500 kPa
411.8 K, Crystal 1, DTA | – | 61300 kPa
414.6 K, Crystal 1, DTA | – | 56200 kPa
415.8 K, Crystal 1, DTA | – | 78400 kPa
436.7 K, Crystal 1, DTA | – | 160000 kPa
[1], Crystal 1 | 0.777 | –
[1], Crystal 2 | 1.6 | –
[1], Crystal 3 | 0.301 | –

Details | Triple point temperature [K]
Crystal 1, DTA | 392
Crystal 2, DTA | 310.8
Crystal 3, DTA | 282.6

ClC12CC3CC(CC(C3)C1)C2 [1-chlorotricyclo[3.3.1.1(3,7)]decane]
Details | Molar enthalpy of transition or fusion [kcal/mol] | solid-solid phase transition pressure [kPa]
[1], Crystal 1 | 1.01 | –
[1], Crystal 2 | 1.42 | –
[2], 250.4 K | – | 400
[2], 254.3 K | – | 15100
[2], 260.5 K | – | 47600
[2], 265 K | – | 52500
[2], 270.3 K | – | 73100
[2], 274.4 K | – | 98800
[2], 278.5 K | – | 104200
[2], 284.7 K | – | 123100
[2], 292.2 K | – | 153000
[2], 292.3 K | – | 150200
[2], 298.4 K | – | 173600
[2], 300.5 K | – | 199600
[2], 306.2 K | – | 204000
[2], 307 K | – | 216500
[2], 311.5 K | – | 221600
[2], 313.1 K | – | 237900
[2], 313.7 K | – | 242200
[2], 315.2 K | – | 237700
[2], 317.3 K | – | 241000
[2], 319.5 K | – | 261500
[2], 320.7 K | – | 266800

Details | Triple point temperature [K]
Crystal 1, DSC | 438.6
Crystal 2, DTA | 249.5
